Measured values as given in paper PMC11783063, “Design, synthesis, and apoptotic antiproliferative action of new benzimidazole/1,2,3-triazole hybrids as EGFR inhibitors” (Frontiers in Chemistry, 2025).
Read-outs that look alike come from different tables or passages of the source.

Columns and labels:
[1] = tested on: MCF-7 (breast cancer cell line); assay: Antiproliferative assay, MCF-7; assay type: cell-based, human; settings: read-out: Antiproliferative activity IC50 ± SEM, MCF-7
Text: (§1) Refer to Supplementary Appendix A for more information.
(§2) DMSO (0.1%) was used as control.

[2] = tested on: A-549 (lung cancer cell line); assay: Antiproliferative assay, A-549; assay type: cell-based, human; settings: read-out: Antiproliferative activity IC50 ± SEM, A-549
Text: as §1, §2

[3] = tested on: HT-29 (colon cancer cell line); assay: Antiproliferative assay, HT-29; assay type: cell-based, human; settings: read-out: Antiproliferative activity IC50 ± SEM, HT-29
Text: as §1, §2

[4] = tested on: MCF-10A normal human mammary gland epithelial cell line; settings: 50 µM
Method: (§3) The medium in which cells were propagated contained Dulbecco's modified Eagle's medium (DMEM)/ Ham's F-12 medium (1:1) supplemented with epidermal growth factor (20 ng/mL), hydrocortisone (500 ng/mL), insulin (10 μg/mL), 2 mM glutamine and 10% foetal calf serum. After every 2-3 days, the cells were passed using trypsin ethylenediamine tetra acetic acid (EDTA). The cells were seeded at a density of 10^4 cells mL^-1 in flat-bottomed culture plates containing 96 wells each. After 24 h, medium was removed from the plates and the compounds in (in 0.1% DMSO) were added (in 200 μL medium to yield a final concentration of 0.1% v/v) to the wells of plates. A single compound was designated with four wells followed by incubation of plates for 96h at 37°C. After incubation, medium was removed completely from the plates followed by addition of MTT (0.4 mg/mL in medium) to each well and subsequent incubation of plates for 3h. MTT (along with the medium) was removed and DMSO (150μL) was added to each well of the culture plates, followed by vortexing and subsequent measurement of absorbance (at 540 nm) using microplate reader.

[5] = tested on: Panc-1 (pancreatic cancer cell line); assay: Antiproliferative assay, Panc-1; assay type: cell-based, human; settings: read-out: Antiproliferative activity IC50 ± SEM, Panc-1
Text: as §1, §2

[6] = tested on: four human cancer cell lines (HT-29, A-549, MCF-7, Panc-1); assay: Antiproliferative assay, mean over four cancer cell lines (GI50); settings: read-out: Average IC50 (GI50)
Method: To calculate the total nuclear DNA, a fluorescent dye (propidium iodide, PI) is used which can attach to the DNA, thus offering a quick and precise technique. PI cannot pass through the cell membrane and its signal intensity can be considered as directly proportional to quantity of cellular DNA. Cells whose cell membranes are damaged or have changed permeability are counted as dead ones. […] The medium was removed; the compounds were added to the plates at 10 µM concentrations (in 0.1% DMSO) in triplicates, followed by incubation for 48 h. DMSO (0.1%) was used as control. After incubation, medium was removed followed by the addition of PI (25 µl, 50µg/mL in water/medium) to each well of the plates. At -80 °C, the plates were allowed to freeze for 24 h, followed by thawing at 25 °C. A fluorometer (Polar-Star BMG Tech) was used to record the readings at excitation and emission wavelengths of 530 and 620 nm for each well. The percentage cytotoxicity of compounds was calculated using the following formula:

[7] = Cell viability assay (MTT) on MCF-10A normal cells; settings: human, MCF-10A normal mammary gland epithelial cells
Method: as §3

[8] = mean IC50 of A-549, MCF-7, Panc-1, HT-29

Compound	IC50 ([1]; MCF-7) [nM]	IC50 ([2]; A-549) [nM]	IC50 [3] [nM]	Cell viability % [4] [%]	IC50 ([5]; Panc-1) [nM]	IC50 [6, 8] [nM]	IC50 ([6]; Homo sapiens) [nM]	viability at 4 days, 50 µM [7] [%]	IC50 ([1]; Homo sapiens, MCF7) [nM]	IC50 ([2]; Homo sapiens, A549) [nM]	IC50 ([3]; Homo sapiens) [nM]	IC50 ([5]; Homo sapiens, PANC-1) [nM]
2-(Benzylthio)-1-((1-(4-chlorophenyl)-1H-1,2,3-triazol-5-yl)methyl)-1H-benzimidazole [10b]	44 ± 3	48 ± 4	48 ± 4	86	48 ± 4							
2-(Benzylthio)-1-((1-phenyl-1H-1,2,3-triazol-5-yl)methyl)-1H-benzimidazole [10a]	56 ± 5	59 ± 5	60 ± 5	87	60 ± 5	59						
Cc1ccc(-n2cc(CSc3nc4ccccc4[nH]3)nn2)cc1 [6f, 2-(((1-(p-Tolyl)-1H-1,2,3-triazol-4-yl)methyl)thio)-1H-benzimidazole]							80	90	78 ± 7	81 ± 7	82 ± 7	80 ± 7
c1ccc(-n2cc(CSc3nc4ccccc4[nH]3)nn2)cc1 [6a, 2-(((1-Phenyl-1H-1,2,3-triazol-4-yl)methyl)thio)-1H-benzimidazole]							88	84	85 ± 7	89 ± 8	88 ± 8	89 ± 8
C#Cc1cccc(Nc2ncnc3cc(OCCOC)c(OCCOC)cc23)c1 [Erlotinib, reference compound]							33					
Brc1ccc(-n2cc(CSc3nc4ccccc4[nH]3)nn2)cc1 [6c, 2-(((1-(4-Bromophenyl)-1H-1,2,3-triazol-4-yl)methyl)thio)-1H-benzimidazole]							94	91	90 ± 8	96 ± 9	94 ± 9	96 ± 9
NS(=O)(=O)c1ccc(-n2cc(Cn3c(SCc4ccccc4)nc4ccccc43)nn2)cc1 [10i]							43	91	42 ± 4	44 ± 4	45 ± 4	44 ± 4
O=[N+]([O-])c1ccc(-n2cc(CSc3nc4ccccc4[nH]3)nn2)cc1 [6d, 2-(((1-(4-Nitrophenyl)-1H-1,2,3-triazol-4-yl)methyl)thio)-1H-benzimidazole]							85	93	83 ± 7	85 ± 7	86 ± 8	86 ± 8
2-(Benzylthio)-1-((1-(4-bromophenyl)-1H-1,2,3-triazol-5-yl)methyl)-1H-benzimidazole [10c]	52 ± 5	55 ± 5	54 ± 5	92	54 ± 5	54						
Clc1ccc(-n2cc(CSc3nc4ccccc4[nH]3)nn2)cc1 [6b, 2-(((1-(4-Chlorophenyl)-1H-1,2,3-triazol-4-yl)methyl)thio)-1H-benzimidazole]							47	87	45 ± 4	47 ± 4	48 ± 4	48 ± 4
COc1ccc(-n2cc(CSc3nc4ccccc4[nH]3)nn2)cc1 [6g, 2-(((1-(4-Methoxyphenyl)-1H-1,2,3-triazol-4-yl)methyl)thio)-1H-benzimidazole]							72	89	69 ± 6	72 ± 7	74 ± 7	72 ± 7
2-(Benzylthio)-1-((1-(3-methoxyphenyl)-1H-1,2,3-triazol-5-yl)methyl)-1H-benzimidazole [10h]	72 ± 7	76 ± 7	76 ± 7	89	76 ± 7	75						
COc1cccc(-n2cc(CSc3nc4ccccc4[nH]3)nn2)c1 [6h, 2-(((1-(3-Methoxyphenyl)-1H-1,2,3-triazol-4-yl)methyl)thio)-1H-benzimidazole]							68	91	66 ± 6	69 ± 6	68 ± 6	69 ± 6
